Experimental data taken from US6689773B2, “Uracil substituted phenyl sulfamoyl carboxamides” (BASF Aktiengesellschaft, priority 2000, dated 2004).

Tests used:
Assay type in all cases: in vivo
[1] = system: SETVI, Green foxtail, Setaria viridis, (L.)Beau; assay: Postemergence herbicidal evaluation (Example 147); conditions: rating scale 0-9, two to three weeks after treatment
Outline: (§1)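 Spray carrier: 80/20 acetone/water, 1.0% SUN-IT II methylated seed oil; rate about 0.016 to 0.032 kg/ha at 40 psi onto two-week seedlings. Assessment: plant stand, vigor, chlorosis and malformation scored 0-9 versus control, two to three weeks after treatment.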

[2] = system: AMBEL, Ragweed, Common, Ambrosia artemiisifolia, L.; assay: Postemergence herbicidal evaluation (Example 147); conditions: rating scale 0-9, two to three weeks after treatment
Outline: as §1

[3] = system: ECHCG, Barnyardgrass, Echinochloa crusgalli, (L.)Beau; assay: Postemergence herbicidal evaluation (Example 147); conditions: rating scale 0-9, two to three weeks after treatment
Outline: as §1

[4] = system: DIGSA, Crabgrass, (Hairy) L, Digitaria sanguinalis, (L)Scop; assay: Postemergence herbicidal evaluation (Example 147); conditions: rating scale 0-9, two to three weeks after treatment
Outline: as §1

[5] = system: GLXMA, Soybean, Glycine max, (L.) Merr.; assay: Postemergence herbicidal evaluation (Example 147); conditions: rating scale 0-9, two to three weeks after treatment
Outline: as §1

[6] = system: XANST, Cocklebur, Xanthium strumariam; assay: Postemergence herbicidal evaluation (Example 147); conditions: rating scale 0-9, two to three weeks after treatment
Outline: as §1

[7] = system: ALOMY, Blackgrass, Alopecurus myosuroides; assay: Postemergence herbicidal evaluation (Example 147); conditions: rating scale 0-9, two to three weeks after treatment
Outline: as §1

[8] = system: ZEAMX, Field corn, Zea mays L.; assay: Postemergence herbicidal evaluation (Example 147); conditions: rating scale 0-9, two to three weeks after treatment
Outline: as §1

[9] = system: ABUTH, Velvetleaf, Abutilon theophrasti, Medic.; assay: Postemergence herbicidal evaluation (Example 147); conditions: rating scale 0-9, two to three weeks after treatment
Outline: as §1

[10] = system: IPOHE, Morningglory, Ivyleaf, Ipomoea hederacea, (L)Jacq.; assay: Postemergence herbicidal evaluation (Example 147); conditions: rating scale 0-9, two to three weeks after treatment
Outline: as §1

[11] = system: CHEAL, Lambsquarters, Chenopodium album, L. Common; assay: Postemergence herbicidal evaluation (Example 147); conditions: rating scale 0-9, two to three weeks after treatment
Outline: as §1

[12] = system: TRZAW, Winter wheat, Tritium Aestivum, L. (Winter); assay: Postemergence herbicidal evaluation (Example 147); conditions: rating scale 0-9, two to three weeks after treatment
Outline: as §1

[13] = system: SETVI, Green foxtail, Setaria viridis, (L.)Beau; assay: Preemergence herbicidal evaluation (Example 148); conditions: rating scale 0-9, two to four weeks after treatment
Outline: (§2)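 Visual scoring against control (stand, vigor, malformation, size, chlorosis, overall appearance) took place two to four weeks post-spray in the greenhouse. Compound in aqueous acetone was applied to freshly seeded soil cups at roughly 0.125–0.250 kg/ha. Values from multiple tests were averaged.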

[14] = system: AMBEL, Ragweed, Common, Ambrosia artemiisifolia, L.; assay: Preemergence herbicidal evaluation (Example 148); conditions: rating scale 0-9, two to four weeks after treatment
Outline: as §2

[15] = system: ECHCG, Barnyardgrass, Echinochloa crusgalli, (L.)Beau; assay: Preemergence herbicidal evaluation (Example 148); conditions: rating scale 0-9, two to four weeks after treatment
Outline: as §2

[16] = system: DIGSA, Crabgrass, (Hairy) L, Digitaria sanguinalis, (L)Scop; assay: Preemergence herbicidal evaluation (Example 148); conditions: rating scale 0-9, two to four weeks after treatment
Outline: as §2

[17] = system: GLXMA, Soybean, Glycine max, (L.) Merr.; assay: Preemergence herbicidal evaluation (Example 148); conditions: rating scale 0-9, two to four weeks after treatment
Outline: as §2

[18] = system: XANST, Cocklebur, Xanthium strumariam; assay: Preemergence herbicidal evaluation (Example 148); conditions: rating scale 0-9, two to four weeks after treatment
Outline: as §2

[19] = system: ALOMY, Blackgrass, Alopecurus myosuroides; assay: Preemergence herbicidal evaluation (Example 148); conditions: rating scale 0-9, two to four weeks after treatment
Outline: as §2

[20] = system: ZEAMX, Field corn, Zea mays L.; assay: Preemergence herbicidal evaluation (Example 148); conditions: rating scale 0-9, two to four weeks after treatment
Outline: as §2

[21] = system: ABUTH, Velvetleaf, Abutilon theophrasti, Medic.; assay: Preemergence herbicidal evaluation (Example 148); conditions: rating scale 0-9, two to four weeks after treatment
Outline: as §2

[22] = system: IPOHE, Morningglory, Ivyleaf, Ipomoea hederacea, (L)Jacq.; assay: Preemergence herbicidal evaluation (Example 148); conditions: rating scale 0-9, two to four weeks after treatment
Outline: as §2

[23] = system: CHEAL, Lambsquarters, Chenopodium album, L. Common; assay: Preemergence herbicidal evaluation (Example 148); conditions: rating scale 0-9, two to four weeks after treatment
Outline: as §2

[24] = system: TRZAW, Winter wheat, Tritium Aestivum, L. (Winter); assay: Preemergence herbicidal evaluation (Example 148); conditions: rating scale 0-9, two to four weeks after treatment
Outline: as §2

CC(C)N(C)S(=O)(=O)NC(=O)c1cc(-n2c(=O)cc(C(F)(F)F)n(N)c2=O)c(F)cc1Cl [Example 76]
Postemergence herbicidal rating SETVI ([1]; rate 0.016 kg/ha): 5.0
Postemergence herbicidal rating SETVI ([1]; rate 0.032 kg/ha): 6.0
Postemergence herbicidal rating AMBEL ([2]; rate 0.016 kg/ha): 8.0
Postemergence herbicidal rating AMBEL ([2]; rate 0.032 kg/ha): 8.0
Postemergence herbicidal rating ECHCG ([3]; rate 0.016 kg/ha): 5.0
Postemergence herbicidal rating ECHCG ([3]; rate 0.032 kg/ha): 6.0
Postemergence herbicidal rating DIGSA ([4]; rate 0.016 kg/ha): 3.0
Postemergence herbicidal rating DIGSA ([4]; rate 0.032 kg/ha): 4.0
Postemergence herbicidal rating GLXMA ([5]; rate 0.016 kg/ha): 7.5
Postemergence herbicidal rating GLXMA ([5]; rate 0.032 kg/ha): 7.5
Postemergence herbicidal rating XANST ([6]; rate 0.016 kg/ha): 9.0
Postemergence herbicidal rating XANST ([6]; rate 0.032 kg/ha): 9.0
Postemergence herbicidal rating ALMOY ([7]; rate 0.016 kg/ha): 1.0
Postemergence herbicidal rating ALMOY ([7]; rate 0.032 kg/ha): 1.0
Postemergence herbicidal rating ZEAMX ([8]; rate 0.016 kg/ha): 5.5
Postemergence herbicidal rating ZEAMX ([8]; rate 0.032 kg/ha): 6.5
Postemergence herbicidal rating ABUTH ([9]; rate 0.016 kg/ha): 9.0
Postemergence herbicidal rating ABUTH ([9]; rate 0.032 kg/ha): 9.0
Postemergence herbicidal rating IPOHE ([10]; rate 0.016 kg/ha): 9.0
Postemergence herbicidal rating IPOHE ([10]; rate 0.032 kg/ha): 9.0
Postemergence herbicidal rating CHEAL ([11]; rate 0.016 kg/ha): 6.0
Postemergence herbicidal rating CHEAL ([11]; rate 0.032 kg/ha): 6.0
Postemergence herbicidal rating TRZAW ([12]; rate 0.016 kg/ha): 5.0
Postemergence herbicidal rating TRZAW ([12]; rate 0.032 kg/ha): 6.0
Preemergence herbicidal rating SETVI ([13]; rate 0.125 kg/ha): 1.0
Preemergence herbicidal rating SETVI ([13]; rate 0.25 kg/ha): 2.0
Preemergence herbicidal rating AMBEL ([14]; rate 0.125 kg/ha): 8.0
Preemergence herbicidal rating AMBEL ([14]; rate 0.25 kg/ha): 9.0
Preemergence herbicidal rating ECHCG ([15]; rate 0.125 kg/ha): 1.0
Preemergence herbicidal rating ECHCG ([15]; rate 0.25 kg/ha): 2.0
Preemergence herbicidal rating DIGSA ([16]; rate 0.125 kg/ha): 2.0
Preemergence herbicidal rating DIGSA ([16]; rate 0.25 kg/ha): 3.0
Preemergence herbicidal rating GLXMA ([17]; rate 0.125 kg/ha): 1.0
Preemergence herbicidal rating GLXMA ([17]; rate 0.25 kg/ha): 3.0
Preemergence herbicidal rating XANST ([18]; rate 0.125 kg/ha): 3.0
Preemergence herbicidal rating XANST ([18]; rate 0.25 kg/ha): 5.0
Preemergence herbicidal rating ALMOY ([19]; rate 0.125 kg/ha): 0.0
Preemergence herbicidal rating ALMOY ([19]; rate 0.25 kg/ha): 2.0
Preemergence herbicidal rating ZEAMX ([20]; rate 0.125 kg/ha): 1.0
Preemergence herbicidal rating ZEAMX ([20]; rate 0.25 kg/ha): 1.0
Preemergence herbicidal rating ABUTH ([21]; rate 0.125 kg/ha): 9.0
Preemergence herbicidal rating ABUTH ([21]; rate 0.25 kg/ha): 9.0
Preemergence herbicidal rating IPOHE ([22]; rate 0.125 kg/ha): 5.0
Preemergence herbicidal rating IPOHE ([22]; rate 0.25 kg/ha): 9.0
Preemergence herbicidal rating CHEAL ([23]; rate 0.125 kg/ha): 8.0
Preemergence herbicidal rating CHEAL ([23]; rate 0.25 kg/ha): 9.0
Preemergence herbicidal rating TRZAW ([24]; rate 0.125 kg/ha): 0.0
Preemergence herbicidal rating TRZAW ([24]; rate 0.25 kg/ha): 1.0

CCOC(=O)CN(C)S(N)(=O)=O [compound 53]
Postemergence herbicidal rating SETVI ([1]; rate 0.016 kg/ha): 6.4
Postemergence herbicidal rating SETVI ([1]; rate 0.032 kg/ha): 7.5
Postemergence herbicidal rating AMBEL ([2]; rate 0.016 kg/ha): 8.9
Postemergence herbicidal rating AMBEL ([2]; rate 0.032 kg/ha): 9.0
Postemergence herbicidal rating ECHCG ([3]; rate 0.016 kg/ha): 8.1
Postemergence herbicidal rating ECHCG ([3]; rate 0.032 kg/ha): 8.8
Postemergence herbicidal rating DIGSA ([4]; rate 0.016 kg/ha): 5.3
Postemergence herbicidal rating DIGSA ([4]; rate 0.032 kg/ha): 6.6
Postemergence herbicidal rating GLXMA ([5]; rate 0.016 kg/ha): 8.1
Postemergence herbicidal rating GLXMA ([5]; rate 0.032 kg/ha): 8.4
Postemergence herbicidal rating XANST ([6]; rate 0.016 kg/ha): 9.0
Postemergence herbicidal rating XANST ([6]; rate 0.032 kg/ha): 9.0
Postemergence herbicidal rating ALMOY ([7]; rate 0.016 kg/ha): 2.3
Postemergence herbicidal rating ALMOY ([7]; rate 0.032 kg/ha): 3.0
Postemergence herbicidal rating ZEAMX ([8]; rate 0.016 kg/ha): 7.2
Postemergence herbicidal rating ZEAMX ([8]; rate 0.032 kg/ha): 7.6
Postemergence herbicidal rating ABUTH ([9]; rate 0.016 kg/ha): 9.0
Postemergence herbicidal rating ABUTH ([9]; rate 0.032 kg/ha): 9.0
Postemergence herbicidal rating IPOHE ([10]; rate 0.016 kg/ha): 8.8
Postemergence herbicidal rating IPOHE ([10]; rate 0.032 kg/ha): 9.0
Postemergence herbicidal rating CHEAL ([11]; rate 0.016 kg/ha): 8.1
Postemergence herbicidal rating CHEAL ([11]; rate 0.032 kg/ha): 8.4
Postemergence herbicidal rating TRZAW ([12]; rate 0.016 kg/ha): 5.6
Postemergence herbicidal rating TRZAW ([12]; rate 0.032 kg/ha): 6.2
Preemergence herbicidal rating SETVI ([13]; rate 0.125 kg/ha): 5.7
Preemergence herbicidal rating SETVI ([13]; rate 0.25 kg/ha): 7.3
Preemergence herbicidal rating AMBEL ([14]; rate 0.125 kg/ha): 8.9
Preemergence herbicidal rating AMBEL ([14]; rate 0.25 kg/ha): 9.0
Preemergence herbicidal rating ECHCG ([15]; rate 0.125 kg/ha): 7.5
Preemergence herbicidal rating ECHCG ([15]; rate 0.25 kg/ha): 8.4
Preemergence herbicidal rating DIGSA ([16]; rate 0.125 kg/ha): 8.1
Preemergence herbicidal rating DIGSA ([16]; rate 0.25 kg/ha): 8.8
Preemergence herbicidal rating GLXMA ([17]; rate 0.125 kg/ha): 8.1
Preemergence herbicidal rating GLXMA ([17]; rate 0.25 kg/ha): 8.8
Preemergence herbicidal rating XANST ([18]; rate 0.125 kg/ha): 9.0
Preemergence herbicidal rating XANST ([18]; rate 0.25 kg/ha): 9.0
Preemergence herbicidal rating ALMOY ([19]; rate 0.125 kg/ha): 1.3
Preemergence herbicidal rating ALMOY ([19]; rate 0.25 kg/ha): 2.7
Preemergence herbicidal rating ZEAMX ([20]; rate 0.125 kg/ha): 2.3
Preemergence herbicidal rating ZEAMX ([20]; rate 0.25 kg/ha): 4.3
Preemergence herbicidal rating ABUTH ([21]; rate 0.125 kg/ha): 9.0
Preemergence herbicidal rating ABUTH ([21]; rate 0.25 kg/ha): 9.0
Preemergence herbicidal rating IPOHE ([22]; rate 0.125 kg/ha): 9.0
Preemergence herbicidal rating IPOHE ([22]; rate 0.25 kg/ha): 9.0
Preemergence herbicidal rating CHEAL ([23]; rate 0.125 kg/ha): 9.0
Preemergence herbicidal rating CHEAL ([23]; rate 0.25 kg/ha): 9.0
Preemergence herbicidal rating TRZAW ([24]; rate 0.125 kg/ha): 1.3
Preemergence herbicidal rating TRZAW ([24]; rate 0.25 kg/ha): 2.0
